# In ChEMBL document CHEMBL2074556, “Possible involvement of P-glycoprotein in the biliary excretion of grepafloxacin” (Clin Exp Pharmacol Physiol, 2002):
# Assays:
# [1] = target: T1, ATP-dependent translocase ABCB1 (Mus musculus, UniProt P21447); assay: TP_TRANSPORTER: increase in Doxorubicin intracellular accumulation (Doxorubicin: 5 uM, Norfloxacin: 500 uM) in P388/ADR cells; assay type: functional, cell-based
# [2] = target: T1, ATP-dependent translocase ABCB1; assay: TP_TRANSPORTER: increase in Doxorubicin intracellular accumulation (Doxorubicin: 5 uM, GPFX: 500 uM) in P388/ADR cells; assay type: functional, cell-based
# [3] = target: Multidrug resistance protein 1a (Rattus norvegicus) (UniProt Q6PSM0); assay: TP_TRANSPORTER: […] in biliary excretion by Doxorubicin, Cyclosporin A and Erythromycin in vivo Wistar rat; assay type: functional, organism-based; settings: Bile
# [4] = target: T1, ATP-dependent translocase ABCB1; assay: TP_TRANSPORTER: increase in Doxorubicin intracellular accumulation (Doxorubicin: 5 uM, SPFX: 500 uM) in P388/ADR cells; assay type: functional, cell-based
# [5] = target: T1, ATP-dependent translocase ABCB1; assay: TP_TRANSPORTER: increase in Doxorubicin intracellular accumulation (Doxorubicin: 5 uM, Tosufloxacin: 500 uM) in P388/ADR cells; assay type: functional, cell-based
# T1 sequence (P21447 whole entry): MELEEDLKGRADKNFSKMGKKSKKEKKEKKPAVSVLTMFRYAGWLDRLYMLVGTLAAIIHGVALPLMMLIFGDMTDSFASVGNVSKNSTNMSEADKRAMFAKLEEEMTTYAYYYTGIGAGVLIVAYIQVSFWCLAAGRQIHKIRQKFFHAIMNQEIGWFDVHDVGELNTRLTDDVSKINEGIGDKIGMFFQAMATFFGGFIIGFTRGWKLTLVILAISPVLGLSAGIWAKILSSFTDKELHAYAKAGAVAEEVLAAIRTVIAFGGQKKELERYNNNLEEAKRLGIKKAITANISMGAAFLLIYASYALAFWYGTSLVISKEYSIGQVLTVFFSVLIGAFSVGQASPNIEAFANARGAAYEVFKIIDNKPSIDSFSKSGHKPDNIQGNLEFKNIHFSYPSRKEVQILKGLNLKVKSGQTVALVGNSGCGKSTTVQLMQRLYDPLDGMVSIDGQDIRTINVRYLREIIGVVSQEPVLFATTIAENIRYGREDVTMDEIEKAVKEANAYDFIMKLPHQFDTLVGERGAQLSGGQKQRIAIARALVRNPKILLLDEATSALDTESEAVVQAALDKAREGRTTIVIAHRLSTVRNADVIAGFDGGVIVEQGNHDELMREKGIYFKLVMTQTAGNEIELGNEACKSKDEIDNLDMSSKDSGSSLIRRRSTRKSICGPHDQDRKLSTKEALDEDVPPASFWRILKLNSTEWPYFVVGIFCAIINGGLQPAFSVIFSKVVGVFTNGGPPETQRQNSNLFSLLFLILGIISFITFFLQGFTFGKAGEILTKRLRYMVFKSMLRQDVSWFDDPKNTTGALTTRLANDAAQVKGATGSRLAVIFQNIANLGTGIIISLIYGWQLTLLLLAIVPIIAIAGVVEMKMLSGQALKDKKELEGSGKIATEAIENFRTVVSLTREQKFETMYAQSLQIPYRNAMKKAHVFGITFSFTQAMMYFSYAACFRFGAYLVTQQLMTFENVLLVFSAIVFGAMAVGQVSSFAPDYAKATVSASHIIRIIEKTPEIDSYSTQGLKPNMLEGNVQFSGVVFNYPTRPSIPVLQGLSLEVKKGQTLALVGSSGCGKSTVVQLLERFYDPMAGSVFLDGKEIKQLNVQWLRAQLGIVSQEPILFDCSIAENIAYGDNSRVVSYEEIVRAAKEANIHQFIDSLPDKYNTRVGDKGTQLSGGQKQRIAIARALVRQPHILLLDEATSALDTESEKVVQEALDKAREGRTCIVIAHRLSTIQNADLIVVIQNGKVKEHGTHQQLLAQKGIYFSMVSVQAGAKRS
# Chain of Multidrug resistance protein 1a (Rattus norvegicus) (Q6PSM0 as listed by the source): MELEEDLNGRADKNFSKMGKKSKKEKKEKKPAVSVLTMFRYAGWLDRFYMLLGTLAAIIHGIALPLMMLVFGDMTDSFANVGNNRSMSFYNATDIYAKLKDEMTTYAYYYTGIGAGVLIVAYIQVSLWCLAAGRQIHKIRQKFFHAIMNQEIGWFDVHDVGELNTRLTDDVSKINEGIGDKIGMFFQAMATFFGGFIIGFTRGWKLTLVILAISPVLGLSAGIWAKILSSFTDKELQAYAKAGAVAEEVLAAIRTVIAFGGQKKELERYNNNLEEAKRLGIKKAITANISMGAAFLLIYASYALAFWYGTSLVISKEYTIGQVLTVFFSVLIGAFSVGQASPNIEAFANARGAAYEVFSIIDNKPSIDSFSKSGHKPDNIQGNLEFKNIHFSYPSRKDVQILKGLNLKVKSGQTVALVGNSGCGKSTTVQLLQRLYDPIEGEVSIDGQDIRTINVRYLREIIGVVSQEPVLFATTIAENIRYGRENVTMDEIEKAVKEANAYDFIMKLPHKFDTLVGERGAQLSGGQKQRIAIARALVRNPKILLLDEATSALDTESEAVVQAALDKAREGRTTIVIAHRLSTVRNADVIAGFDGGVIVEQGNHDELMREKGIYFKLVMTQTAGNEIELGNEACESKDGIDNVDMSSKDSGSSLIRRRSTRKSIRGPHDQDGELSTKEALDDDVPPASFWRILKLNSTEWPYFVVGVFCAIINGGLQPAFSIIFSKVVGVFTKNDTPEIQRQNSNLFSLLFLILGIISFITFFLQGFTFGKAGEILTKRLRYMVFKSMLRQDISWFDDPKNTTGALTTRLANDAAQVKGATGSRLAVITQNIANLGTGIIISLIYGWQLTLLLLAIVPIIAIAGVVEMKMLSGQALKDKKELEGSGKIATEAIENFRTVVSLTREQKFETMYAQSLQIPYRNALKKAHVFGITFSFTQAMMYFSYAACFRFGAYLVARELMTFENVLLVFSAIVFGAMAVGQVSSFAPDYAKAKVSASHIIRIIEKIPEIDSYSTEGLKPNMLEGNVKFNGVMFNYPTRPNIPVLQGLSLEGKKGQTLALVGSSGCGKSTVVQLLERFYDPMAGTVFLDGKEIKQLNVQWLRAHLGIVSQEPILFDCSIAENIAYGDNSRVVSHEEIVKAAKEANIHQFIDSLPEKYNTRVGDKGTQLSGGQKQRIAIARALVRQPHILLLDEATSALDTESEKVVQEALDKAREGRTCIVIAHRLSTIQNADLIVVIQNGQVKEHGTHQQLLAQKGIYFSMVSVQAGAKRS
smiles,measurement,setting,value
CCn1cc(C(=O)O)c(=O)c2cc(F)c(N3CCNCC3)cc21 [NORFLOXACIN],Activity,[1],inhibitor [(at a rough estimate) 290 % of control]
Cc1c(F)c(N2CCNC(C)C2)cc2c1c(=O)c(C(=O)O)cn2C1CC1 (stereo not given) [GREPAFLOXACIN],Activity,[2],inhibitor [(at a rough estimate) 140 % of control]
same,Activity,[3],substrate [+]
C[C@@H]1CN(c2c(F)c(N)c3c(=O)c(C(=O)O)cn(C4CC4)c3c2F)C[C@H](C)N1 [SPARFLOXACIN],Activity,[4],inhibitor [(at a rough estimate) 140 % of control]
NC1CCN(c2nc3c(cc2F)c(=O)c(C(=O)O)cn3-c2ccc(F)cc2F)C1 (stereo not given) [TOSUFLOXACIN],Activity,[5],inhibitor [(at a rough estimate) 200 % of control]
